We go through one compound from PMC7145991, “Biochemical Functions of Glutathione S-Transferase Family of Salix babylonica” (Frontiers in Plant Science, 2020).

Common to all, as to test: spectrophotometric GSH-CDNB conjugation, nonlinear regression
Holding throughout (type): biochemical
Holding throughout (settings): GSH fixed 1.0 mM; 50 mM potassium phosphate pH 6.5; 25 °C; read-out: K mCDNB /

Assay [1] has as its target T1, SbGSTU1 (Salix babylonica, UniProt A0A4Y5R2M7).
T1 construct: gene GSTU1; full length, 6xHis-tag (pET30a), E. coli BL21 (DE3), Ni-Sepharose
The text has this: spectrophotometric GSH-CDNB conjugation, nonlinear regression on SbGSTU1

The target of assay [2] is T2, SbGSTU13 (Salix babylonica, UniProt A0A4Y5R0L5).
T2 construct: gene GSTU13; full length, 6xHis-tag (pET30a), E. coli BL21 (DE3), Ni-Sepharose
T2 sequence (A0A4Y5R0L5 1-222): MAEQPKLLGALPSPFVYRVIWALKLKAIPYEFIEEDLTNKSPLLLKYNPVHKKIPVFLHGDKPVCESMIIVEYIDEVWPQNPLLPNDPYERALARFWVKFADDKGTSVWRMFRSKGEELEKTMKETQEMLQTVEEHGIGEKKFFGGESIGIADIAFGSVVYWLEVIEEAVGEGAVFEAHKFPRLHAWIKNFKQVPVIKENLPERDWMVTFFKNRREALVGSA
The text has this:
spectrophotometric GSH-CDNB conjugation, nonlinear regression on SbGSTU13

Assay [3] deals with T3, SbGSTU3 (Salix babylonica, UniProt A0A4Y5R0K8).
T3 construct: gene GSTU3; full length, 6xHis-tag (pET30a), E. coli BL21 (DE3), Ni-Sepharose
T3 sequence (A0A4Y5R0K8 1-220): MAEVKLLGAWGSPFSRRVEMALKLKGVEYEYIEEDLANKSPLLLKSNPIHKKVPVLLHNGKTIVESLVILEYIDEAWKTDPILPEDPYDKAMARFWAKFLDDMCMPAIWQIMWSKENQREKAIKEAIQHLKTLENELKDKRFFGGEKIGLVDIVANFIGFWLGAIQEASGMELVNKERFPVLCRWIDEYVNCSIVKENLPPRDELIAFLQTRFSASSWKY
From the text: spectrophotometric GSH-CDNB conjugation, nonlinear regression on SbGSTU3

For assay [4], the target named is T4, SbGSTU10 (Salix babylonica, UniProt A0A4Y5QZX3).
T4 construct: gene GSTU10; full length, 6xHis-tag (pET30a), E. coli BL21 (DE3), Ni-Sepharose
T4 sequence (A0A4Y5QZX3 1-220): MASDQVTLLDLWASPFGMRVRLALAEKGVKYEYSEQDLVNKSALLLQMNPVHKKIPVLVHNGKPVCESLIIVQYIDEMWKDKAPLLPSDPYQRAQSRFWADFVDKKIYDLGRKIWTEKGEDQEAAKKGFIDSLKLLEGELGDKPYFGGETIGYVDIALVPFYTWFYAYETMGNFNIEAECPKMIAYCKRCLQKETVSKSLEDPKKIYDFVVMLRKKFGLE
From the text: spectrophotometric GSH-CDNB conjugation, nonlinear regression on SbGSTU10

Assay [5] has as its target T5, SbGSTU12 (Salix babylonica, UniProt A0A4Y5R0C1).
T5 construct: gene GSTU12; full length, 6xHis-tag (pET30a), E. coli BL21 (DE3), Ni-Sepharose
The text has this:
spectrophotometric GSH-CDNB conjugation, nonlinear regression on SbGSTU12

Assay [6] deals with T6, SbGSTU7 (Salix babylonica, UniProt A0A4Y5R087).
T6 construct: gene GSTU7; full length, 6xHis-tag (pET30a), E. coli BL21 (DE3), Ni-Sepharose
T6 sequence (A0A4Y5R087 1-219): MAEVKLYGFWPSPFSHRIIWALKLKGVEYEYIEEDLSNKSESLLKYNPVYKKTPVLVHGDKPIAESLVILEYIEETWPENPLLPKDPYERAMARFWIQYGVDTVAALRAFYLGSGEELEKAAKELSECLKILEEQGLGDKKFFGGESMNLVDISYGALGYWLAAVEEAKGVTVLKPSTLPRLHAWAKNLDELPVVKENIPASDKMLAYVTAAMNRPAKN
The text has this: spectrophotometric GSH-CDNB conjugation, nonlinear regression on SbGSTU7

The structures appear in SMILES notation.

T5 sequence (A0A4Y5R0C1 1-222): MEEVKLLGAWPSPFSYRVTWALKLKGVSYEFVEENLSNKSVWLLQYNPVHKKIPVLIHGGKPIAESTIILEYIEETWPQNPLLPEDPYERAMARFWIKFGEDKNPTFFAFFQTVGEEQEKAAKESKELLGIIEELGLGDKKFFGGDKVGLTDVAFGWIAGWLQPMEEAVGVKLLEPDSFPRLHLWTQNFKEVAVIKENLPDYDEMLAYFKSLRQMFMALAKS
T1 sequence (A0A4Y5R2M7 1-219): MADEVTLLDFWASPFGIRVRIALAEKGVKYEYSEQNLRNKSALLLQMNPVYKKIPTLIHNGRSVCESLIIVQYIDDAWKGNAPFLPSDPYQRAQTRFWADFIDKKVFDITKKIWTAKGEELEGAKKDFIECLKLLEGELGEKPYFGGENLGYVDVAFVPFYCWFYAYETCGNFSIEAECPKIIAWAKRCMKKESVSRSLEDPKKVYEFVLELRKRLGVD

With `O=[N+]([O-])c1ccc(Cl)c([N+](=O)[O-])c1` [CDNB, 1-chloro-2,4-dinitrobenzene], the Km in assay [1] is 201 ± 4 µM; in assay [2], 1270 ± 62 µM; in assay [3] it was 1000 ± 33 µM; in assay [4] it was 156 ± 2 µM; in assay [5] it was 2140 ± 272 µM; in assay [6] it was 2070 ± 165 µM.
